Test results from patent US5637591A, “Antimicrobial and anticollagenase activity of phenazine-5, 10-dioxide and derivatives” (Fuji ImmunoPharmaceuticals Corp., priority 1995, dated 1997).
≈ marks a conversion by molar mass, not a printed value. Where two headings read alike, the source gives them in different places.

Key:
A. act and/or P. gin = conditions: background summary; cited from earlier work
Fusobacterium nucleatum = experiment: anaerobic liquid culture growth inhibition, OD 650 nm; assay type: cell-based; conditions: read-out: IC50 Fusobacterium nucleatum
[1] = system: Porphyromonas gingivalis 2561; experiment: as above; assay type: cell-based
[2] = system: Peptostreptococcus anaerobius; experiment: as above; assay type: cell-based; conditions: read-out: IC50 Peptostreptococcus anaerobius
[3] = system: Escherichia coli strain DH5α; experiment: zone inhibition method on agar plate; assay type: cell-based; conditions: 10 μl of 1 mg/ml on 3 mm paper disk, overnight 37° C., radius from center of disk; for zone of inhibition at 1000 µg/mL: Escherichia coli, read-out: E. coli Clear Zone
Protocol: (§1) Solutions of the agents were tested for activity against Escherichia coli strain DH5α by a zone inhibition method, and against P. gingivalis strain 2561 by addition to plating medium to determine minimum inhibitory concentrations (M/C). For the zone inhibition study, a suspension of E. coli was spread on the surface of an agar plate. A 3 mm diameter paper disk was placed on the seeded agar surface, and 10 μl of solution of each compound formulated at 1 mg/ml was added to the disk. Plates were incubated overnight at 37° C. The radius of the zone of inhibition was measured from the center of the disk to the edge of the E. coli bacterial lawn. For determination of MIC, drug solutions were mixed with plating medium to produce a range of final drug concentrations. Media with drug were plated in the wells of 24-well plates. A drop of bacterial suspension containing 2-5×10^2 CFU P. gingivalis was placed on each well. Plates were incubated 1 week in an anaerobic chamber at 37° C.

[4] = system: Porphyromonas gingivalis RB-22D-1; experiment: anaerobic liquid culture growth inhibition, OD 650 nm; assay type: cell-based
Bacteroides fragilis = experiment: as above; assay type: cell-based; conditions: read-out: IC50 Bacteroides fragilis
Clostridium perfringens = experiment: microbe, parasite or virus in culture; assay type: cell-based; conditions: read-out: IC50 Clostridium perfringens
[5] = system: P. gingivalis strain 2561; experiment: minimum inhibitory concentration by addition to plating medium; assay type: cell-based; conditions: for MIC: Porphyromonas gingivalis, 2561, 168 h
Protocol: as §1

[6] = system: Fusobacterium necrophorum; experiment: anaerobic liquid culture growth inhibition, OD 650 nm; assay type: cell-based; conditions: read-out: IC50 Fusobacterium necrophorum
Bacteroides levii = experiment: as above; assay type: cell-based; conditions: Porphyromonas levii, read-out: IC50 Bacteroides levii
[7] = system: purified collagenase from P. gingivalis; experiment: anti-collagenase activity, 3H-collagen hydrolysis; assay type: biochemical; conditions: for % Inhibition of collagenase: 24 h at 25° C.
Protocol: Collagenase activity in the presence of the preferred compound 2-aminophenazine-5,10-dioxide and in the presence of Tetracycline were measured by incubating ^3 H-collagen with purified collagenase from P. gingivalis using increasing drag concentrations. After 24 h at 25° C., unhydrolyzed collagen fibers were removed from the mixture by centrifugation, and the specific activity of ^3 H in the supernatant quantified as a measure of hydrolyzed collagen. Percent inhibition was determined by subtracting the value in the presence of test compound from the control value, then dividing this quantity by the control value [(control-compound)/control×100].

[8] = system: anaerobic bacterial species; experiment: anaerobic liquid culture growth inhibition, whole panel; assay type: cell-based; conditions: all species of Table 4; read-out: susceptibilities (IC50) of the various anaerobic species
Protocol: The concentrations of the various preferred substituted phenazine-5,10-dioxide compounds necessary to inhibit growth by 50% (IC50 values) were determined for a variety of anaerobic bacterial species. Compounds were individually diluted into liquid growth media, which along with suspensions of bacterial monocultures were added to the wells of 96-well plates. Cultures were incubated anaerobically overnight, and growth was assessed by measuring optical density at 650 nm. IC50 values were determined as the compound concentration producing a turbidity reading equal to 50% of the maximum. Again, results with Tetracycline are shown for comparison.

P. gingivalis = experiment: bone loss after oral colonization with P. gingivalis in mice, systemic administration; assay type: in vivo, BALB/c mice
Protocol: An animal model for testing the antimicrobial activity of the invention against P. gingivalis was conducted by inducing oral colonization of the microbe in BALB/c mice. Drug (2-methylphenazine-5,10-dioxide or Tetracycline) or control (2.5% cyclodextran) was administered intraperitoneally once each day for 25 days (2-methylphenazine-5,10-dioxide) or 40 days (Tetracycline). On the day following the last dose administration, the rear molars of the mice were swabbed and the swabs incubated in a growth medium to assess the presence of P. gingivalis. Mice were then sacrificed and jaw bones harvested for evaluation of bone loss.

[9] = Porphyromonas gingivalis, 2561, anaerobic overnight, OD 650 nm, read-out: IC50 Porphyromonas gingivalis 2561
[10] = RB22D1, anaerobic overnight, OD 650 nm, read-out: IC50 Porphyromonas gingivalis RB-22D-1
[11] = MIC on a molar basis, read-out: P. gingivalis MIC
[12] = complete inhibition of growth, 1 week anaerobic, 37° C., read-out: P. gingivalis MIC

Compound	Activity against A. act and/or P. gin (A. act and/or P. gin)	IC50 (Fusobacterium nucleatum; anaerobic overnight, OD 650 nm)	IC50 [1, 9]	IC50 ([2]; anaerobic overnight, OD 650 nm)	IC50 [4, 10]	IC50 (Bacteroides fragilis; anaerobic overnight, OD 650 nm)	IC50 (Clostridium perfringens)	IC50 ([6]; anaerobic overnight, OD 650 nm)	IC50 (Bacteroides levii; anaerobic overnight, OD 650 nm)	zone of inhibition at 1000 µg/mL [3]	MIC [5, 11]	MIC [5, 12]	further results
CC1(C)S[C@@H]2[C@H](NC(=O)[C@H](N)c3ccc(O)cc3)C(=O)N2[C@H]1C(=O)O [Amoxicillin]	ineffective	–	–	–	–	–	–	–	–	–	–	–	–
CC1(C)S[C@@H]2[C@H](NC(=O)Cc3ccccc3)C(=O)N2[C@H]1C(=O)O [Penicillin G]	ineffective	–	–	–	–	–	–	–	–	–	–	–	–
[O-][n+]1c2ccccc2[n+]([O-])c2cc(O)c(O)cc21 [2,3-dihydroxyphenazine-5,10-dioxide]	–	> 10 µg/mL	5 µg/mL (≈ 20.5 µM)	> 10 µg/mL	2 µg/mL (≈ 8.19 µM)	> 10 µg/mL	> 10 µg/mL	> 10 µg/mL	> 10 µg/mL	–	–	–	E. coli Clear Zone [3]: inactive; antimicrobial activity against P. gingivalis [5]: inactive; P. gingivalis MIC (μM) ([5]; MIC on a molar basis): inactive; P. gingivalis MIC ([5]; complete inhibition of growth, 1 week anaerobic, 37° C.): inactive
[O-][n+]1c2ccccc2[n+]([O-])c2ccccc21 [phenazine-5,10-dioxide]	–	3.5 µg/mL (≈ 16.5 µM)	–	0.2 µg/mL (≈ 0.942 µM)	–	3 µg/mL (≈ 14.1 µM)	1 µg/mL (≈ 4.71 µM)	0.45 µg/mL (≈ 2.12 µM)	2.5 µg/mL (≈ 11.8 µM)	19 mm	0.296 µM	0.063 µg/mL	–
[O-][n+]1c2ccccc2[n+]([O-])c2c3cccnc3c(O)cc21 [2-hydroxy-3,4-iminopropylphenazine-5,10-dioxide]	–	> 10 µg/mL	0.08 µg/mL (≈ 0.286 µM)	0.1 µg/mL (≈ 0.358 µM)	0.18 µg/mL (≈ 0.645 µM)	1 µg/mL (≈ 3.58 µM)	0.1 µg/mL (≈ 0.358 µM)	6.5 µg/mL (≈ 23.3 µM)	2 µg/mL (≈ 7.16 µM)	17 mm	0.112 µM	0.031 µg/mL	–
CN(C)[C@@H]1C(O)=C(C(N)=O)C(=O)[C@@]2(O)C(O)=C3C(=O)c4c(O)cccc4[C@@](C)(O)[C@H]3C[C@@H]12 [Tetracycline, reference compound]	–	–	–	–	–	–	0.06 µg/mL (≈ 0.135 µM)	–	–	10 mm	–	–	IC50 (Fusobacterium nucleatum): 0.16 µg/mL (≈ 0.36 µM); % Inhibition of collagenase ([7]; 1 μg/ml): 7.6%; % Inhibition of collagenase ([7]; 10 μg/ml): 31%; % Inhibition of collagenase ([7]; 100 μg/ml): 68%; anti-collagenase IC50 ([7]; estimated from Table 5): about 56 μg/ml; IC50 ([1]; Porphyromonas gingivalis, 2561, read-out: IC50 Porphyromonas gingivalis 2561): 0.02 µg/mL (≈ 0.045 µM); IC50 [2]: 0.03 µg/mL (≈ 0.0675 µM); IC50 [8]: ≤ 0.1 µg/mL; IC50 ([4]; RB22D1, read-out: IC50 Porphyromonas gingivalis RB-22D-1): 0.06 µg/mL (≈ 0.135 µM); IC50 (Bacteroides fragilis): 0.1 µg/mL (≈ 0.225 µM); MIC ([5]; read-out: P. gingivalis MIC): 0.5 µg/mL; MIC ([5]; read-out: P. gingivalis MIC (μM)): 1.13 µM; IC50 [6]: 0.03 µg/mL (≈ 0.0675 µM); IC50 (Bacteroides levii): 0.1 µg/mL (≈ 0.225 µM); Bone Loss (BLU) Average ± SD (P. gingivalis; Bacterial Infection, 5 mg/kg intraperitoneally once each day × 40 d, 0.33 mm = 1 BLU): 7.21 ± 0.73 BLU; effect of treatment on bone loss (P. gingivalis; infected mice, IP daily, 25 d (2-methylphenazine-5,10-dioxide) or 40 d (Tetracycline)): did not effect the bone loss
COc1ccc2c(c1)[n+]([O-])c1ccc(N)cc1[n+]2[O-] [2-amino-7-methoxyphenazine-5,10-dioxide, 2-amino,7-methoxyphenazine-5,10-dioxide]	–	–	0.015 µg/mL (≈ 0.0583 µM)	–	0.08 µg/mL (≈ 0.311 µM)	–	–	–	–	–	–	–	–
Cc1ncc([N+](=O)[O-])n1CCO [Metronidazole]	ineffective	–	–	–	–	–	–	–	–	–	–	–	–
[O-][n+]1c2ccccc2[n+]([O-])c2cc(O)ccc21 [2-hydroxyphenazine-5,10-dioxide]	–	> 10 µg/mL	0.62 µg/mL (≈ 2.72 µM)	0.45 µg/mL (≈ 1.97 µM)	0.22 µg/mL (≈ 0.964 µM)	5 µg/mL (≈ 21.9 µM)	1 µg/mL (≈ 4.38 µM)	0.45 µg/mL (≈ 1.97 µM)	0.2 µg/mL (≈ 0.876 µM)	15 mm	0.07 µM	0.016 µg/mL	concentration range of activity against P. gingivalis ([5]; molar basis): nanomolar concentration range
